Molecular target: TRPV1 (Homo sapiens, UniProt Q8NER1)
Assay: cell-based
Protocol: Combine 42 μL of dye mixture with 11 mL of FLIPR buffer/96-well plate.
Laser is adjusted upwards for an average signal≧10,000/well and less than 10% variability.

Chain of TRPV1 (Q8NER1 whole entry, species assumed): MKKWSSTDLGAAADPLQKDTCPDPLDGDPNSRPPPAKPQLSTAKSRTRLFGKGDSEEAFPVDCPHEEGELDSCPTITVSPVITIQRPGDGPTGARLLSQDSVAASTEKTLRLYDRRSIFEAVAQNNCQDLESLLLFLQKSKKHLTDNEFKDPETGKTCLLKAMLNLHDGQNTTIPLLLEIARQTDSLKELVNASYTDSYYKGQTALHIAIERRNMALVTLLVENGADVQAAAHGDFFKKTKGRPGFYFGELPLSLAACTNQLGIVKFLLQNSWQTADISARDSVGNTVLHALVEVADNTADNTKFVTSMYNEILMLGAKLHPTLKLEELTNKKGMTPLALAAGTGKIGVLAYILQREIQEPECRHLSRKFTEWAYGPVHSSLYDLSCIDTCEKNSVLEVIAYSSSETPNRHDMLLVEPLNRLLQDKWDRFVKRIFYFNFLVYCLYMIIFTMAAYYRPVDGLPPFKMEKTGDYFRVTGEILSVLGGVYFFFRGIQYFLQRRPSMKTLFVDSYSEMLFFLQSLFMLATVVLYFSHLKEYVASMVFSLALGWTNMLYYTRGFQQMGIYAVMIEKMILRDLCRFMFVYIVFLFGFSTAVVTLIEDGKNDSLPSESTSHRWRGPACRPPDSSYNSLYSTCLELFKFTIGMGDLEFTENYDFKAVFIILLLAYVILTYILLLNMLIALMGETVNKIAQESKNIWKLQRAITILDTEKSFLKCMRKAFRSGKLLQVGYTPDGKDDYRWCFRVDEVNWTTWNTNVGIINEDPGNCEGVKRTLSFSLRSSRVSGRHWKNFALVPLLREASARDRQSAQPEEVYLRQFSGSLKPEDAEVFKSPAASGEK

Compound `Oc1cc2c(cc1O)CN(C(=S)NCCc1ccc(Cl)cc1)CCC2` [capsazepine] has an IC50 of about 500 nM.

Source: US20080070890A1, “Spirocyclic Azetidinone Compounds and Methods of Use Thereof” (priority 2006, published 2008)
